From US7981893B2, “Heteroaryl compounds, compositions thereof, and methods of treatment therewith” (Signal Pharmaceuticals, LLC, priority 2006, dated 2011) come the findings set out here.

Bounds are passed on as bounds.

`Cl.NCc1nc(-c2ccc(-c3cnc4[nH]c(=O)n(CC5CCCCC5)c4n3)cc2)n[nH]1`: the melting point (as a rule, the temperature of the solid-liquid transition) was 326 to 329 °C. `Cl.O=c1[nH]c2ncc(-c3ccc(O)cc3)nc2n1CC1CCCN1` (centres unmarked): the melting point is 178 to 180 °C. Compound `Cl.O=c1[nH]c2ncc(-c3ccc(-c4nnc[nH]4)cc3)nc2n1CCN1CCCCC1` gave a melting point of 194 to 197 °C. Next, `CC(c1ccccc1)n1c(=O)[nH]c2ncc(-c3ccnc4ccccc34)nc21` (centres unmarked) [Compound 70, 1-(1-phenylethyl)-6-(quinolin-4-yl)-1H-imidazo[4,5-b]pyrazin-2(3H)-one]: 252 to 254 °C. Next, `COc1ccccc1-n1c(=O)[nH]c2ccc(-c3cccc(O)c3)nc21` [Compound 92, 5-(3-Hydroxyphenyl)-3-(2-methoxyphenyl)-1H-imidazo[4,5-b]pyridin-2(3H)-one]: 240 to 242 °C; `O=c1[nH]c2ncc(-c3ccc(O)cc3)nc2n1C1CCCCC1` [Compound 95, 1-Cyclohexyl-6-(4-hydroxyphenyl)-1H-imidazo[4,5-b]pyrazin-2(3H)-one]: 318 to 320 °C. `NC(=O)c1ccc(-c2cnc3[nH]c(=O)n(CC4CCCCC4)c3n2)cc1` [Compound 96, 4-(3-(Cyclohexylmethyl)-2-oxo-2,3-dihydro-1H-imidazo[4,5-b]pyrazin-5-yl)benzamide] returned a melting point of 293 to 295 °C. Next, `COC(=O)c1ccc(-c2cnc3[nH]c(=O)n(CC4CCCCC4)c3n2)cc1` [Compound 97, Methyl 4-(3-(cyclohexylmethyl)-2-oxo-2,3-dihydro-1H-imidazo[4,5-b]pyrazin-5-yl)benzoate]: 253 to 255 °C.

Compound `O=c1[nH]c2ncc(-c3ccncc3)nc2n1CC1CCCCC1` [Compound 98, 1-(Cyclohexylmethyl)-6-(pyridin-4-yl)-1H-imidazo[4,5-b]pyrazin-2(3H)-one] had a melting point of 267 to 269 °C. Next, `CNC(=O)c1ccc(-c2cnc3[nH]c(=O)n(CC4CCCCC4)c3n2)cc1` [Compound 99, 4-(3-(Cyclohexylmethyl)-2-oxo-2,3-dihydro-1H-imidazo[4,5-b]pyrazin-5-yl)-N-methylbenzamide]: 273 to 275 °C; `O=c1[nH]c2ncc(-c3ccc(CO)cc3)nc2n1CC1CCCCC1` [Compound 100, 1-(Cyclohexylmethyl)-6-(4-(hydroxymethyl)phenyl)-1H-imidazo[4,5-b]pyrazin-2(3H)-one]: 275 to 277 °C. `O=c1[nH]c2ncc(-c3cccnc3)nc2n1CC1CCCCC1` [Compound 101, 1-(Cyclohexylmethyl)-6-(pyridin-3-yl)-1H-imidazo[4,5-b]pyrazin-2(3H)-one] gave a melting point of 205 °C. The result for `O=c1[nH]c2ncc(-c3ccc4[nH]ccc4c3)nc2n1CC1CCCCC1` [Compound 103, 1-(Cyclohexylmethyl)-6-(1H-indol-5-yl)-1H-imidazo[4,5-b]pyrazin-2(3H)-one] reads 343 to 346 °C; that for `CC(C)NC(=O)c1ccc(-c2cnc3[nH]c(=O)n(CC4CCCCC4)c3n2)cc1` [Compound 104, 4-(3-(Cyclohexylmethyl)-2-oxo-2,3-dihydro-1H-imidazo[4,5-b]pyrazin-5-yl)-N-isopropylbenzamide], 264 to 268 °C; that for `O=c1[nH]c2ncc(-c3ccc(O)cc3)nc2n1CCO` [Compound 105, 1-(2-Hydroxyethyl)-6-(4-hydroxyphenyl)-1H-imidazo[4,5-b]pyrazin-2(3H)-one], 308 to 310 °C. Compound `O=c1[nH]c2ncc(-c3ccc4cc[nH]c4c3)nc2n1CC1CCCCC1` [Compound 106, 1-(Cyclohexylmethyl)-6-(1H-indol-6-yl)-1H-imidazo[4,5-b]pyrazin-2(3H)-one] had a melting point of 359 to 363 °C.

Take `CN1CCC(Cn2c(=O)[nH]c3ncc(-c4ccc(O)cc4)nc32)CC1` [Compound 109, 6-(4-Hydroxyphenyl)-1-((1-methylpiperidin-4-yl)methyl)-1H-imidazo[4,5-b]pyrazin-2(3H)-one]: the melting point fell in the range of 292 to 294 °C.

For the compound `N#Cc1ccc(-c2cnc3[nH]c(=O)n(CC4CCCCC4)c3n2)cc1` [Compound 110, 4-(3-(Cyclohexylmethyl)-2-oxo-2,3-dihydro-1H-imidazo[4,5-b]pyrazin-5-yl)benzonitrile], the melting point lay in the range of 255 to 257 °C. The result for `CC(C)(O)c1ccc(-c2cnc3[nH]c(=O)n(CC4CCCCC4)c3n2)cc1` [Compound 114, 1-(Cyclohexylmethyl)-6-(4-(2-hydroxypropan-2-yl)phenyl)-1H-imidazo[4,5-b]pyrazin-2(3H)-one] reads 226 to 228 °C; that for `Cc1cc(O)ccc1-c1cnc2[nH]c(=O)n(CC3CCCCC3)c2n1` [Compound 115, 1-(Cyclohexylmethyl)-6-(4-hydroxy-2-methylphenyl)-1H-imidazo[4,5-b]pyrazin-2(3H)-one], 212 to 214 °C; that for `O=C(O)c1ccc(-c2cnc3[nH]c(=O)n(CC4CCCCC4)c3n2)cc1` [Compound 116, 4-(3-(Cyclohexylmethyl)-2-oxo-2,3-dihydro-1H-imidazo[4,5-b]pyrazin-5-yl)benzoic acid], more than 350 °C. Next, `COCCn1c(=O)[nH]c2ncc(-c3ccc(O)cc3)nc21` [Compound 117, 6-(4-Hydroxyphenyl)-1-(2-methoxyethyl)-1H-imidazo[4,5-b]pyrazin-2(3H)-one]: 236 to 237 °C; `COCCCn1c(=O)[nH]c2ncc(-c3ccc(O)cc3)nc21` [Compound 118, 6-(4-Hydroxyphenyl)-1-(3-methoxypropyl)-1H-imidazo[4,5-b]pyrazin-2(3H)-one]: 208 to 210 °C; `COc1cccc(CN2CC(=O)Nc3ncc(-c4ccc(O)cc4)nc32)c1` [Compound 119, 6-(4-Hydroxyphenyl)-4-(3-methoxybenzyl)-3,4-dihydropyrazino[2,3-b]pyrazin-2(1H)-one]: 282 to 283 °C. Next, `O=c1[nH]c2ncc(-c3ccc(O)cc3)nc2n1CCC1CCOCC1` [Compound 120, 6-(4-Hydroxyphenyl)-1-(2-(tetrahydro-2H-pyran-4-yl)ethyl)-1H-imidazo[4,5-b]pyrazin-2(3H)-one]: 276 to 277 °C. The compound `O=c1[nH]c2ncc(-c3ccc(O)cc3)nc2n1CCc1ccccc1` [Compound 121, 6-(4-Hydroxyphenyl)-1-phenethyl-1H-imidazo[4,5-b]pyrazin-2(3H)-one] showed a melting point of 283 to 284 °C. Take `O=c1[nH]c2ncc(-c3ccccc3)nc2n1CC1CCCCC1` [Compound 124, 1-(Cyclohexylmethyl)-6-phenyl-1H-imidazo[4,5-b]pyrazin-2(3H)-one]: the melting point is 253 to 255 °C. Next, `O=c1[nH]c2ncc(-c3ccn[nH]3)nc2n1CC1CCCCC1` [Compound 125, 1-(Cyclohexylmethyl)-6-(1H-pyrazol-5-yl)-1H-imidazo[4,5-b]pyrazin-2(3H)-one]: 264 to 266 °C; `O=c1[nH]c2ncc(-c3cn[nH]c3)nc2n1CC1CCCCC1` [Compound 126, 1-(Cyclohexylmethyl)-6-(1H-pyrazol-4-yl)-1H-imidazo[4,5-b]pyrazin-2(3H)-one]: 246 to 248 °C.
